Reference: patent US8545820B2, “Use of titanium-based materials as bactericides” (Savannah River Nuclear Solutions, LLC, priority 2010, dated 2013)

Key:
[1] = tested on: Actinomyces naeslundii (An); assay: Planktonic bacterial growth suppression (OD at 595 nm, 24 h exposure); type: cell-based
Method: (§1) Set forth in Table 1 are the species of oral bacteria which were evaluated. These species are atiologic agents and periodontal disease, gingivitis, or caries that would lend themselves to treatment with a solid-phase metal titanate compound. […] All bacteria were cultured from frozen stocks expanded from ATCC cultures; the absence of contamination was verified at each thaw via Gram stain. All bacteria were grown over 24 h to mid-log phase before inoculating experimental cultures.
(§2) One hundred μL of the initial culture was plated in 96 well plate format number of bacterial cells present in a given volume of culture was determined by correlating OD reading of bacterial culture at 595 nm to the number of cells present. […] Prior to exposing bacteria to metal-titanate compounds, appropriate dilutions of each bacterial species were made so that metal-titanate compounds are consistently exposed to 3.56E9 bacteria for all species tested. This strategy assured the same cell to titanate particle ratio, allowed repeatability, and allowed log growth phase throughout the 24 h time when bacteria were exposed to the titanates. A 24 h incubation time with titanates was chosen to maximize the exposure to the titanates without risking a culture deteriorating from overgrowth.
(§3) For metal ions alone, 5 μL of a concentrated stock solution of the respective metal salt were added to 95 μL of the bacterial cultures (n=8 per condition). […] The cultures were mixed to ensure contact between the titanates and the bacteria. MST and APT suspensions were thoroughly mixed prior to addition to ensure accurate transfer of the particles. […] Titanate-bacterial cultures were incubated for 24 h under the conditions appropriate for each type of bacterium. After 24 h, the cultures were thoroughly mixed prior to reading the OD. Control cultures for experiments included cultures of media alone (no titanates or bacteria), titanates in media (no bacteria), and bacteria alone (no titanates). […] All experiments were repeated in triplicate to assure reproducibility.
(§4) The initial and final mean and standard deviation OD readings were plotted as a function of concentration. The titanate only controls were also plotted as a baseline. Cultures were statistically compared (two-sided Student's t-tests, α=0.05) to determine significant effects of the titanates (with or without added metal) on bacterial growth.
(§5) A similar strategy was used to assess the antibacterial action of the metal ions alone, so that the relative efficacy of the titanates alone and titanate metal complexes could be compared to the metal ions alone. The delivery potential of metal ion from the titanate-metal complexes was determined by calculating the total metal mass complexed with the titanates at each titanate particle concentration.

[2] = tested on: Prevotella intermedia (Pi); assay: as above; type: cell-based; details: concentrations ≦1500 μM
Method: as §1, §2, §3, §4, §5

mammalian cells = details: metal ion alone; based on previous reports; cited from earlier work
bacteria in Table 1 = assay: Planktonic bacterial growth suppression, statements pooled over the species tested; type: cell-based, oral bacteria
Method: as §1
One hundred μL of the initial culture was plated in 96 well plate format number of bacterial cells present in a given volume of culture was determined by correlating OD reading of bacterial culture at 595 nm to the number of cells present. […] Prior to exposing bacteria to metal-titanate compounds, appropriate dilutions of each bacterial species were made so that metal-titanate compounds are consistently exposed to 3.56E9 bacteria for all species tested. […]
For metal ions alone, 5 μL of a concentrated stock solution of the respective metal salt were added to 95 μL of the bacterial cultures (n=8 per condition). […] After 24 h, the cultures were thoroughly mixed prior to reading the OD. […]
The initial and final mean and standard deviation OD readings were plotted as a function of concentration. […]

[3] = Aqueous solubility of the metal chloride salt; type: physicochemical

O.O.O.[Cl][Au-]([Cl])([Cl])[Cl].[H+] [Au(III), HAuCl4•3H2O]
An growth suppression by metal ion alone ([1]; >10 μM): completely suppressed | Effect of metal ion alone on Pi [2]: no observable effect | Inhibitory concentration for mammalian cells (mammalian cells): 60 to 115 µM | Relative potency among the metal ions alone (bacteria in Table 1; metal ions alone, excepting Pt(II)): most potent

[Cl][Pt][Cl] [Pt(II), PtCl2]
Aqueous solubility of the chloride salt [3]: limited aqueous solubility

[Cl][Pd][Cl] [Pd(II), PdCl2]
An growth suppression by metal ion alone ([1]; >1000 μM): approximately 30% | Inhibitory concentration for mammalian cells (mammalian cells): 100 to 300 µM

CC[C@H]1OC(=O)[C@H](C)[C@@H](O[C@H]2C[C@@](C)(OC)[C@@H](O)[C@H](C)O2)[C@H](C)[C@@H](O[C@@H]2O[C@H](C)C[C@H](N(C)C)[C@H]2O)[C@](C)(O)C[C@@H](C)C(=O)[C@H](C)[C@@H](O)[C@]1(C)O [erythromycin]
Bacteriostatic control (Bac-Em) (bacteria in Table 1; bacteria with erythromycin 100 μg/mL, no titanates): behaved as expected

[Cl][Pt][Cl] [Pt(IV), PtCl2]
An growth suppression by metal ion alone ([1]; concentrations ≦750 μM): not suppressed | Inhibitory concentration for mammalian cells (mammalian cells): 25 µM
